Source: EP0153538A1, “Derivatives of melilotic acid, and medicaments containing them” (Laboratoire Marcel Richard Société anonyme dite, priority 1984, dated 1985)
Where two headings read alike, the source gives them in different places.

Key:
souris [1] = assay: Phenylbenzoquinone test (analgesia) in mice; assay type: in vivo; conditions: test à la phénylbenzoquinone, 500 mg/Kg
Procedure: (§1) En ce qui concerne l'activité analgésique, le produit donne dans le test à la phénylbenzoquinone et dans le test à la plaque chauffante chez la souris une protection de 88 % à 500 mg/Kg.

[2] = test system: agrégation plaquettaire provoquée par l'ADP; assay: Inhibition of ADP-induced platelet aggregation, rabbit; assay type: in vivo; conditions: lapin, 100 mg/Kg
Procedure: (§2) Ce produit inhibe l'agrégation plaquettaire provoquée par l'ADP (adénosine diphosphate) : • sur le sang humain, inhibition de 40 % à 100 mg/Kg, sur le rat et le lapin, inhibition de 60 Z à 100 mg/Kg.

rat anesthésié = assay: Blood pressure in the anaesthetised rat after IV administration; assay type: in vivo; conditions: rat anesthésié à l'éthylméthane, IV 100 mg/Kg
Procedure: Sur le rat anesthésié à l'éthylméthane,on enregistre après administration IV. de 100 mg/Kg de produit selon l'invention une légère hypotension, soit une baisse de 15 %.

Solubility (qualitative) = assay type: physicochemical
Procedure: Plus particulièrement, l'acide fluoro-5 acétyl mélilotique se présente sous la forme d'une poudre cristalline blanche, peu soluble dans l'eau, mais soluble dans l'alcool, l'acétone et dans les solvants organiques usuels. Son point de fusion est de 96-98°C.
12 g d'acide fluoro-5 acétoxy-2 cinnamique sont dissous dans 120cm3 acétate d'éthyle avec 1,5 g de palladium sur charbon à 10 % et hydro- gènés dans l'appareil de Parr sous 5 atmosphères d'hydrogène pendant 1 heure; on filtre et concentre sous vide pour obtenir un résidu cristallisé d'acide fluoro-5 acétylmélilotique pur peu soluble dans l'eau, soluble dans l'alcool, l'acétone et les solvants organiques usuels.

chien anesthésié = assay: Cardiovascular and respiratory effects in the pentobarbital-anaesthetised dog after IV injection; assay type: in vivo; conditions: chien anesthésié au Pentobarbital, IV 50 mg/Kg
[3] = test system: agrégation plaquettaire provoquée par l'ADP; assay: Inhibition of ADP-induced platelet aggregation, human blood; assay type: cell-based; conditions: sang humain, 100 mg/Kg
Procedure: as §2

souris [4] = assay: Hot plate test (analgesia) in mice; assay type: in vivo; conditions: test à la plaque chauffante, 500 mg/Kg
Procedure: as §1

[5] = Acute toxicity in male SWISS mice; conditions: mouse, in vivo, souris mâle SWISS, read-out: toxicité (converted)
Procedure: Sa toxicité est de 1 500 mg/Kg par voie orale et de 750 mg/Kg par voie intrapéritonéale, déterminée sur la souris mâle-de la souche SWISS.

[6] = test system: agrégation plaquettaire provoquée par l'ADP; assay: Inhibition of ADP-induced platelet aggregation, rat; assay type: in vivo; conditions: 100 mg/Kg
Procedure: as §2

[7] = test system: artériopathies périphériques, oedème de la cheville, varices; assay: Therapeutic application (peripheral arteriopathies, ankle oedema, varices); assay type: in vivo

CC(=O)Oc1ccc(F)cc1CCC(=O)O [acide fluoro-5 acétyl mélilotique]
protection (souris [1]): 88% | inhibition de l'agrégation plaquettaire provoquée par l'ADP [2]: 60% | hypotension (baisse) (rat anesthésié): 15% | solubilité dans l'alcool, l'acétone et les solvants organiques usuels (Solubility (qualitative); alcool, acétone, solvants organiques usuels): soluble | solubilité dans l'eau (Solubility (qualitative); eau): peu soluble | augmentation du débit (chien anesthésié): 65% | battements (chien anesthésié): renforcement | diminution du rythme respiratoire (chien anesthésié): 25% | fréquence cardiaque (chien anesthésié): sans modification | hypotension (chien anesthésié): 7% | inhibition de l'agrégation plaquettaire provoquée par l'ADP [3]: 40% | protection (souris [4]): 88% | LD50 ([5]; ip, voie intrapéritonéale): 750 mg/kg | LD50 ([5]; po, voie orale): 1500 mg/kg | inhibition de l'agrégation plaquettaire provoquée par l'ADP [6]: 60% | application thérapeutique [7]: résultats favorables
